This test deals with test plant species. Briefly: Post-emergent herbicidal activity test (greenhouse, foliar spray, visual growth reduction). The test is classed as in vivo. As to conditions: post-emergence, 336 h, 140 g ai/ha, 14 days after application. As to the method: Post-emergent Test: Seeds or nutlets of the desired test plant species were planted in Sun Gro Metro-Mix® 360 planting mixture, which typically has a pH of 6.0 to 6.8 and an organic matter content of about 30 percent, in plastic pots with a surface area of 64 square centimeters. In some aspects, to ensure good germination and healthy plants, a fungicide treatment and/or other chemical or physical treatment was applied. The plants were grown for 7-21 d in a greenhouse with an approximate 15 h photoperiod which was maintained at 23-29° C. during the day and 22-28° C. during the night. Nutrients and water were added on a regular basis and supplemental lighting was provided with overhead metal halide 1000-Watt lamps as necessary. Plants were used for testing when they reached the first or second true leaf stage. A weighed amount, determined by the highest rate to be tested, of each test compound was placed in a 25 mL glass vial and was dissolved in 4 mL of a 97:3 v/v mixture of acetone and DMSO to obtain concentrated stock solutions. […] The concentrated stock solutions obtained were diluted with 20 mL of an aqueous mixture containing acetone, water, isopropyl alcohol, DMSO, […] crop oil concentrate, and X-77 surfactant in a 48.5:39:10:1.5:1.0:0.02 v/v ratio to obtain spray solutions containing the application rate. Compound requirements are based upon a 12 mL application volume at a rate of 187 liters per hectare (L/ha). Formulated compounds were applied to the plant material with an overhead Mandel track sprayer equipped with […] nozzles calibrated to deliver 187 L/ha over an application area of 0.64 square meters at a spray height of 18 inches (43 cm) above the average plant canopy height. Control plants were sprayed in the same manner with the solvent blank. The treated plants and control plants were placed in a greenhouse as described above and watered by subirrigation to prevent wash-off of the test compounds. After 14 d, the condition of the test plants as compared with that of the nontreated and control plants was determined visually and scored on a scale of 0 to 100 percent where 0 corresponds to no injury and 100 corresponds to complete control. In the reporting of the results, Table A: Percent Growth Reduction Conversion Table was used.

The mark [1] stands for this setting: ALOMY: blackgrass (Alopecurus myosuroides), read-out: Visual Growth Reduction (%) 14 Days After Application, ALOMY.
Setting [2] is: AMARE: redroot pigweed (Amaranthus retroflexus), read-out: Visual Growth Reduction (%) 14 Days After Application, AMARE.
Where [3] appears, read: AVEFA: wild oat (Avena fatua), read-out: Visual Growth Reduction (%) 14 Days After Application, AVEFA.
Setting [4] is: CHEAL: lambsquarters (Chenopodium album), read-out: Visual Growth Reduction (%) 14 Days After Application, CHEAL.
Setting [5] is: CIRAR: canada thistle (Cirsium arvense), read-out: Visual Growth Reduction (%) 14 Days After Application, CIRAR.
The mark [6] stands for this setting: CYPES: yellow nutsedge (Cyperus esculentus), read-out: Visual Growth Reduction (%) 14 Days After Application, CYPES.
The mark [7] stands for this setting: DIGSA: crabgrass (Digitaria sanguinalis), read-out: Visual Growth Reduction (%) 14 Days After Application, DIGSA.
Where [8] appears, read: ECHCG: barnyardgrass (Echinochloa crus-galli), read-out: Visual Growth Reduction (%) 14 Days After Application, ECHCG.
Setting [9] is: IPOHE: ivy-leaf morning glory (Ipomoea hederacea), read-out: Visual Growth Reduction (%) 14 Days After Application, IPOHE.
Where [10] appears, read: KCHSC: kochia (Bassia scoparia), read-out: Visual Growth Reduction (%) 14 Days After Application, KCHSC.
[11] abbreviates: ORYSA: rice (Oryza sativa), read-out: Visual Growth Reduction (%) 14 Days After Application, ORYSA.
[12] abbreviates: SETFA: giant foxtail (Setaria faberi), read-out: Visual Growth Reduction (%) 14 Days After Application, SETFA.
Setting [13] is: SORVU: grain sorghum (Sorghum vulgare), read-out: Visual Growth Reduction (%) 14 Days After Application, SORVU.
Where [14] appears, read: STEME: common chickweed (Stellaria media), read-out: Visual Growth Reduction (%) 14 Days After Application, STEME.
[15] abbreviates: TRZAS: wheat, spring (Triticum aestivum), read-out: Visual Growth Reduction (%) 14 Days After Application, TRZAS.

SMILES strings stand for the structures. Where two headings read alike, the source gives them in different places.

Regarding `COC(=O)c1cc(Cl)cc(-c2ccc(Cl)cc2Cl)n1` [F56, Methyl 4-chloro-6-(2,4-dichlorophenyl) picolinate], the pest or weed control at 140 g/ha is, setting by setting: under setting [1], 0 to 29%; under setting [2], 0 to 29%; under setting [3], 0 to 29%; under setting [4], 0 to 29%; under setting [5], 0 to 29%; under setting [6], 0 to 29%. Further, the pest or weed control at 140 g/ha lay within 0 to 29% under setting [7]; 0 to 29% under setting [8]; 0 to 29% under setting [9]; 0 to 29% under setting [10]; 0 to 29% under setting [11]; 0 to 29% under setting [12]. The pest or weed control at 140 g/ha was in the range of 0 to 29% under setting [13], 0 to 29% under setting [14] and 0 to 29% under setting [15].

In the case of `COC(=O)c1cc(Cl)cc(-c2ccc(C(F)(F)F)cc2Cl)n1` [F57, Methyl 4-chloro-6-(2-chloro-4-(trifluoromethyl)phenyl)picolinate], the pest or weed control at 140 g/ha is 0 to 29% under setting [1]; 0 to 29% under setting [2]; 0 to 29% under setting [3]; 0 to 29% under setting [4]; 0 to 29% under setting [5]; 0 to 29% under setting [6]. For the same molecule, the pest or weed control at 140 g/ha under setting [7] fell in the range of 0 to 29%; the pest or weed control at 140 g/ha under setting [8] was 0 to 29%; the pest or weed control at 140 g/ha under setting [9] was in the range of 0 to 29%; the pest or weed control at 140 g/ha under setting [10] lay within 0 to 29%; the pest or weed control at 140 g/ha under setting [11] fell in the range of 0 to 29%; the pest or weed control at 140 g/ha under setting [12] lay within 0 to 29%. Besides, the pest or weed control at 140 g/ha is, setting by setting: under setting [13], 0 to 29%; under setting [14], 0 to 29%; under setting [15], 0 to 29%.

On to `COC(=O)c1nc(-c2ccc(OC(F)(F)F)cc2Cl)ccc1Cl` [F58, Methyl 3-chloro-6-(2-chloro-4-(trifluoromethoxy)phenyl)picolinate], for which the pest or weed control at 140 g/ha was 30 to 44% under setting [1]; 95 to 100% under setting [2]; 45 to 59% under setting [3]; 60 to 74% under setting [4]; 95 to 100% under setting [5]; 0 to 29% under setting [6]. For the same molecule, the pest or weed control at 140 g/ha is, setting by setting: under setting [7], 85 to 94%; under setting [8], 0 to 29%; under setting [9], 95 to 100%; under setting [10], 30 to 44%; under setting [11], 0 to 29%; under setting [12], 75 to 84%. Moreover, under setting [13], the pest or weed control at 140 g/ha lay within 85 to 94%.

In the case of `COC(=O)c1nc(-c2ccc(C#N)cc2Cl)ccc1Cl` [F59, methyl 3-chloro-6-(2-chloro-4-cyanophenyl)picolinate], the pest or weed control at 140 g/ha is 0 to 29% under setting [1]; 85 to 94% under setting [2]; 0 to 29% under setting [3]; 60 to 74% under setting [4]; 30 to 44% under setting [5]; 0 to 29% under setting [6]. Also, the pest or weed control at 140 g/ha is, setting by setting: under setting [7], 60 to 74%; under setting [8], 45 to 59%; under setting [9], 95 to 100%; under setting [10], 45 to 59%; under setting [11], 0 to 29%; under setting [12], 45 to 59%. Besides, the pest or weed control at 140 g/ha under setting [13] fell in the range of 75 to 84%, the pest or weed control at 140 g/ha under setting [14] fell in the range of 0 to 29% and the pest or weed control at 140 g/ha under setting [15] was in the range of 0 to 29%.

Regarding `COC(=O)c1nc(-c2ccc(C)cc2Cl)ccc1Cl` [F60, Methyl 3-chloro-6-(2-chloro-4-methylphenyl) picolinate], the pest or weed control at 140 g/ha under setting [1] fell in the range of 0 to 29%; the pest or weed control at 140 g/ha under setting [2] was 60 to 74%; the pest or weed control at 140 g/ha under setting [3] lay in the range of 0 to 29%; the pest or weed control at 140 g/ha under setting [4] is 0 to 29%; the pest or weed control at 140 g/ha under setting [5] fell in the range of 0 to 29%; the pest or weed control at 140 g/ha under setting [6] lay in the range of 0 to 29%. Also, the pest or weed control at 140 g/ha fell in the range of 0 to 29% under setting [7]; 0 to 29% under setting [8]; 45 to 59% under setting [9]; 0 to 29% under setting [10]; 0 to 29% under setting [12]; 0 to 29% under setting [13]. Moreover, under setting [14], the pest or weed control at 140 g/ha lay within 0 to 29%.

Turning to `O=C(O)c1nc(-c2ccc(C(F)(F)F)cc2Cl)ccc1Cl` [F61, 3-chloro-6-(2-chloro-4-(trifluoromethyl)phenyl)picolinic acid], the pest or weed control at 140 g/ha under setting [1] lay in the range of 60 to 74%; the pest or weed control at 140 g/ha under setting [2] was in the range of 95 to 100%; the pest or weed control at 140 g/ha under setting [3] was 60 to 74%; the pest or weed control at 140 g/ha under setting [4] lay within 95 to 100%; the pest or weed control at 140 g/ha under setting [5] lay within 85 to 94%; the pest or weed control at 140 g/ha under setting [6] lay within 0 to 29%. Moreover, the pest or weed control at 140 g/ha was 95 to 100% under setting [7]; 85 to 94% under setting [8]; 95 to 100% under setting [9]; 85 to 94% under setting [10]; 45 to 59% under setting [11]; 85 to 94% under setting [12]. For the same molecule, the pest or weed control at 140 g/ha by setting is: under setting [13], 85 to 94%; under setting [14], 0 to 29%; under setting [15], 85 to 94%.

In the case of `COC(=O)c1nc(-c2c(F)cc(Cl)cc2Cl)ccc1Cl` [F62, Methyl 3-chloro-6-(2,4-dichloro-6-fluorophenyl) picolinate], the pest or weed control at 140 g/ha by setting is: under setting [1], 0 to 29%; under setting [2], 95 to 100%; under setting [3], 0 to 29%; under setting [4], 75 to 84%; under setting [5], 75 to 84%; under setting [6], 0 to 29%. Also, the pest or weed control at 140 g/ha was 75 to 84% under setting [7]; 95 to 100% under setting [9]; 60 to 74% under setting [10]; 0 to 29% under setting [11]; 75 to 84% under setting [12]; 85 to 94% under setting [13]. The pest or weed control at 140 g/ha under setting [14] was 0 to 29%.

Turning to `COC(=O)c1nc(-c2ccc(Cl)c(F)c2Cl)ccc1Cl` [F63, Methyl 3-chloro-6-(2,4-dichloro-3-fluorophenyl) picolinate], the pest or weed control at 140 g/ha is 0 to 29% under setting [1]; 95 to 100% under setting [2]; 0 to 29% under setting [3]; 95 to 100% under setting [4]; 85 to 94% under setting [5]; 0 to 29% under setting [6]. The pest or weed control at 140 g/ha is, setting by setting: under setting [7], 85 to 94%; under setting [9], 95 to 100%; under setting [10], 60 to 74%; under setting [11], 0 to 29%; under setting [12], 75 to 84%; under setting [13], 85 to 94%. Further, the pest or weed control at 140 g/ha under setting [14] was in the range of 0 to 29%.

The values above are taken from US20230017045A1, “PYRIDINE AND PYRIMIDINE CARBOXYLATE HERBICIDES AND METHODS OF USE THEREOF” (Dow AgroSciences LLC, priority 2017, published 2023).
